Assay results published in patent publication US20250002846A1, “METHOD FOR CONSTRUCTION OF INNER EAR ORGANOID” (INDUSTRY FOUNDATION OF CHONNAM NATIONAL UNIVERSITY, priority 2022, published 2025).

What was measured:
[1] = tested on: U-IEO-derived hair cell-like cells; assay: Patch clamp of hair cell-like cells from U well plate inner ear organoids, with or without cisplatin; format: cell-based, mouse
Procedure: (§1) A 10 mV nominal increment was made at the holding potential of −84 mV covering the range of −124 to +54 mV for a duration of […], before returning to a constant potential of −44 mV (tail current, 50 ms). The bath solution was prepared using L-15 media (Gibco) and the pipette solution was prepared using 150 mM KCl, 5 mM HEPES, 0.1 mM CaCl2, 5 mM EGTA, 3.5 mM Mg ATP, pH 7.3 (KOH), and Osmolality 288 mmol/kg. To obtain damaged IEO, IEO was treated with […] of cisplatin on day 30 for 48 hours (100 mg cisplatin/0.33 mL (D. W) a 3 μL cisplatin +20 mL medium). To apply the IEO for patch clamp, the IEO was treated with trypsin for 5 minutes and the detached cells were detected with a patch pipette (n=4). Whole cells of IEO-derived hair cell-like cells were subjected to close-seal technique, in order to compare the electrophysiology of IEOS formed in microhole chips (hereinafter “M-IEO”) and IEOs formed in U well plates (hereinafter “U-IEO”) using patch clamp assays (FIG. 5A). In the 3D structure of the IEO, cells were isolated using single cell trypsinization. First, the morphology of mouse organs of Corti hair cells, mESC (R1/E), and IEO-derived hair cell-like cells was confirmed (FIG. 5B). […]

[2] = tested on: M-IEO-derived hair cell-like cells; assay: Patch clamp of hair cell-like cells from microhole chip inner ear organoids, with or without cisplatin; format: cell-based, mouse; settings: 68 pA−20 pA at 60 mV (so in the source)
Procedure: as §1

N.N.[Cl][Pt][Cl] [cisplatin]
electrophysiology after culture with cisplatin ([1]; 3-day culture with or without cisplatin): significantly reduced electrophysiology
loss of current, without versus with cisplatin ([1]; U-IEO, 138 pA−28 pA (so in the source)): 110 pA
loss of current, without versus with cisplatin [2]: 48 pA
